Tests used:
[1] = tested on: MX-1 Human Mammary Xenograft; assay: Experimental anticancer activity in murine in vivo systems (Tumor Regression); conditions: MX-1 (Tumor Regression)
[2] = tested on: A498; assay: NCI in vitro mini panel, human cancer cell line growth inhibition; assay type: cell-based; conditions: Renal A498, 48 hrs
Procedure: (§1) ED50 (P388) and GI50 (HTCL) identify the drug dose which reduces the percent tumor/cell growth to 50%. There is no mathematical difference between ED50 and GI50, both of which are calculated using the same formula. The only difference is historical usage.
(§2) TGI, means "Total Growth Inhibition", and identifies the drug dose needed to yield zero percent growth, i.e. there are just as many cells at the end of the experiment as were present at the beginning. Whether just as many cells were killed as were produced (steady state), or no growth occurred (total inhibition) cannot be distinguished.
(§3) LC50, means "Lethal Concentration 50%", and identifies the drug concentration which reduces to one-half of the cells originally present at the beginning of the experiment.
(§4) Each drug is tested at five (5) doses: 100--10-1-0.1--0.01 μg/mL. Percent Growths are calculated for each dose. The two (or three) doses with growth values above, below, (or near to) 50% growth are used to calculate the ED50 /GI50 values using a linear regression computation. If no dose yields a growth value under 50%, the results are expressed as: ED50 >(highest dose). If no dose yields growth higher than 50% growth, then ED50 <(lowest dose). Similar calculations are performed for the TGI at 0% growth, and at -50% growth for the LC50.
(§5) At the start of each experiment, cells from the in vitro cell cultures are inoculated into the appropriate tubes or microtiter plates. One set of control tubes/plates is immediately counted to determine the number of cells at the start of the experiment. This is the "baseline count", or "Tzero reading". At the end of the experiment (48 hrs later), a second set of control tubes/plates is analyzed to determine the "Control Growth" value. The growth (or death) of cells relative to the initial quantity of cells is used to define the "Percent of Growth."
(§6) Similarly, the compounds disclosed herein have also been tested against an NCI in vitro mini panel. For each of six cell lines GI50, TGI, and LC50 amounts were calculated for each compound. Each compound was also tested against the PS-388 cell line and for this test an ED50 was calculated.
(§7) The protocols followed, for the NCI minipanel are, except for the number of cell lines, those established by M. R. Boyd Ph.D., and well known to those of ordinary skill in the art. The procedure followed for the test against PS-388 Leukemia is the same that was followed in the superseded NCI P-388 screening test, which is also well known to those having ordinary skill in the art.

[3] = tested on: KM20L2; assay: as above; assay type: cell-based; conditions: Colon KM20L2, 48 hrs
Procedure: as §1, §2, §3, §4, §5, §6, §7

[4] = tested on: NCI-H460; assay: as above; assay type: cell-based; conditions: Lung-NSC NCI-H460, 48 hrs
Procedure: as §1, §2, §3, §4, §5, §6, §7

[5] = tested on: OVCAR-3; assay: as above; assay type: cell-based; conditions: Ovarian OVCAR-3, 48 hrs
Procedure: as §1, §2, §3, §4, §5, §6, §7

[6] = tested on: SF-295; assay: as above; assay type: cell-based; conditions: CNS SF-295, 48 hrs
Procedure: as §1, §2, §3, §4, §5, §6, §7

[7] = tested on: SK-MEL-5; assay: as above; assay type: cell-based; conditions: Melanoma SK-MEL-5, 48 hrs
Procedure: as §1, §2, §3, §4, §5, §6, §7

[8] = tested on: PS-388; assay: PS-388 mouse leukemia cell line test; assay type: cell-based; conditions: Mouse Leukemia PS-388
Procedure: as §1, §4, §5, §6, §7

Substance | GI-50 [2] [µg/mL] | LC-50 [2] [µg/mL] | TGI [2] [µg/mL] | GI-50 [3] [µg/mL] | LC-50 [3] [µg/mL] | TGI [3] [µg/mL] | GI-50 [4] [µg/mL] | LC-50 [4] [µg/mL] | TGI [4] [µg/mL] | GI-50 [5] [µg/mL] | LC-50 [5] [µg/mL] | TGI [5] [µg/mL] | GI-50 [6] [µg/mL] | LC-50 [6] [µg/mL] | TGI [6] [µg/mL] | GI-50 [7] [µg/mL] | LC-50 [7] [µg/mL] | TGI [7] [µg/mL] | ED-50 [8] [µg/mL] | other results
Dolastatin 10 | – | – | – | – | – | – | – | – | – | – | – | – | – | – | – | – | – | – | – | T/C ([1]; 6.25 μg/kg): 69; T/C ([1]; 13 μg/kg): 61; T/C ([1]; 26 μg/kg): 50; T/C ([1]; 52 μg/kg): 14
L-Dolavalyl-L-Leucyl-N-methyl-(3R,4S,5S)-Dolaisoleuinyl-(2R,3R,4S)-Dolaproinyl-L-Methionine N-4-chlorophenylamide [8b] | 0.00045 | > 0.01 | > 0.01 | 0.00028 | > 0.01 | > 0.01 | 0.003 | > 0.01 | 0.009 | 0.000031 | > 0.01 | 0.0016 | 0.0029 | > 0.01 | > 0.01 | 0.000018 | > 0.01 | > 0.01 | 0.000434 | –
L-Dolavalyl-L-Leucyl-N-methyl-(3R,4S,5S)-Dolaisoleuinyl-(2R,3R,4S)-Dolaproinyl-N-2(3-chlorophenyl) ethylamide [10c] | 0.0038 | > 0.01 | > 0.01 | 0.0020 | > 0.01 | > 0.01 | 0.0029 | > 0.01 | 0.0084 | 0.0019 | > 0.01 | > 0.01 | 0.0035 | > 0.01 | > 0.01 | 0.0025 | > 0.01 | > 0.01 | 0.00314 | –

From patent US5530097A, “Human cancer inhibitory peptide amides” (Arizona Board of Regents acting on behalf of Arizona State …, priority 1994, dated 1996)
